Reference: US11912693B2, “Compounds for modulating S1P1 activity and methods of using the same” (TREVENA, INC., priority 2017, dated 2024)

Columns and labels:
[1] = target: T1, human sphingosine-1-phosphate receptor 1 (S1P1) (Homo sapiens (Human), UniProt P21453); assay: Inhibition of cAMP production (HTRF cAMP HiRange), S1P1 CHO-K1 cells; format: cell-based; conditions: for Emax: CHO-K1, efficacy (SPAN) normalized to fingolimod, read-out: hS1P1 cAMP SPAN; for EC50 / hS1P1 cAMP pEC50: inhibition of cAMP production, S1P1 CHO-K1 cells; for EC50: read-out: hS1P1 cAMP pEC50 (converted)
Summary of the method: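 CHO-K1 cells stably co-expressing human S1P1 (C-terminal Prolink tag) and EA-β-arrestin2 were grown in AssayComplete Media 6 at 37° C. and 5% CO2, plated, and incubated overnight. Agonist-driven inhibition of intracellular cAMP was read by TR-FRET with the HTRF cAMP HiRange kit on a PheraStar reader. Potency is pEC50, and efficacy (SPAN) is normalized to fingolimod.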
Target sequence in this assay (P21453 whole entry, looked up): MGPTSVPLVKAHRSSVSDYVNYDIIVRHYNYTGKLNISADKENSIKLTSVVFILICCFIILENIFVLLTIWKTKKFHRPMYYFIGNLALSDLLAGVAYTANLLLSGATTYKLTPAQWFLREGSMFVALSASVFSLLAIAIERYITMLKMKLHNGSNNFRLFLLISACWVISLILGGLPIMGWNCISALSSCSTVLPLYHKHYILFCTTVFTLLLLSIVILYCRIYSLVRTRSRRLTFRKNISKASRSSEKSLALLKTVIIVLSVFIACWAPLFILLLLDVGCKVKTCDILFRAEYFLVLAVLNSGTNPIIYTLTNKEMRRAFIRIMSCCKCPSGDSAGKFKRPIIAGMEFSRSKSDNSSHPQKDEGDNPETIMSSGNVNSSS

[2] = target: T1, human sphingosine-1-phosphate receptor 1 (S1P1); assay: β-Arrestin2 recruitment assay (PathHunter), S1P1 CHO-K1 cells; format: cell-based; conditions: for Emax: CHO-K1, efficacy (SPAN) normalized to fingolimod, read-out: hS1P1 B-arrestin2 SPAN; for EC50 / hS1P1 B-arrestin2 pEC50: β-arrestin2 recruitment, S1P1 CHO-K1 cells; for EC50: read-out: hS1P1 B-arrestin2 pEC50 (converted)
Summary of the method: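 Enzyme-fragment complementation read-out: agonist-driven β-arrestin2 binding to ProLink-tagged human S1P1 in stable CHO-K1 cells restores β-galactosidase, measured 1 h at room temperature after a 60 min 37° C. compound incubation. Potency as pEC50, efficacy relative to fingolimod (SPAN).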
Target sequence in this assay (P21453 whole entry, looked up): as above
Target sequence in this assay (P32121 whole entry partner, looked up): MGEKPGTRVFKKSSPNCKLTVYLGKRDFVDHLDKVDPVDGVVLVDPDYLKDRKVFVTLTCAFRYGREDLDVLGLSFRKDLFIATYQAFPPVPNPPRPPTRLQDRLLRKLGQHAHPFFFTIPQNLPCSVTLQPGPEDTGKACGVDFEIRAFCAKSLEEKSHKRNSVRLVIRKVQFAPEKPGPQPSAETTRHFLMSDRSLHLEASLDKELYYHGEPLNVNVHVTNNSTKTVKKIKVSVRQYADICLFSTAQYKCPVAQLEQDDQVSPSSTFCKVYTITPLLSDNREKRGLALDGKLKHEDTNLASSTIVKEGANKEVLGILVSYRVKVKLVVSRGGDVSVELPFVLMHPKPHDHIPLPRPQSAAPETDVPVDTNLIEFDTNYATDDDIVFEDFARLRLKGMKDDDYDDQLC

SMILES	Emax [1] [%]	EC50 [1] [µM]	Emax [2] [%]	EC50 [2] [µM]	hS1P1 cAMP pEC50 [1]	hS1P1 B-arrestin2 pEC50 [2]
Cc1ccsc1-c1noc(-c2ccc3c(c2)nnn3C(C)(C)C)n1 [Compound 253, 1-tert-butyl-5-[3-(3-methylthiophen-2-yl)-1,2,4-oxadiazol-5-yl]-1H-1,2,3-benzotriazole]	> 75	< 0.316	> 75	< 10	–	–
CC(C)Oc1ccccc1-c1noc(-c2ccc3c(ccn3C(C)C)c2)n1 [Compound 324, 3-(2-isopropoxyphenyl)-5-(1-isopropyl-1H-indol-5-yl)-1,2,4-oxadiazole]	< 75	–	< 75	–	<6.5	<5
N#Cc1cc(-c2nnc(-c3ccc4[nH]ncc4c3)o2)ccc1NCCF [Compound 353, 2-[(2-fluoroethyl)amino]-5-[5-(1H-indazol-5-yl)-1,3,4-oxadiazol-2-yl]benzonitrile]	> 75	–	> 75	–	>6.5	>5
CC1(C)CCC2(CC1)CC(=O)c1cc(-c3nc(-c4cccnc4)no3)ccc1O2 [Compound 58, 4′,4′-dimethyl-6-[3-(pyridin-3-yl)-1,2,4-oxadiazol-5-yl]-3,4-dihydrospiro[1-benzopyran-2,1′-cyclohexane]-4-one]	< 75	–	< 75	–	<6.5	<5
CCC1(CC)CC(=O)c2cc(-c3nsc(-c4ccccc4OC)n3)ccc2O1 [Compound 222, 2,2-diethyl-6-(5-(2-methoxyphenyl)-1,2,4-thiadiazol-3-yl)chroman-4-one]	–	–	–	–	<6.5	>5
N#Cc1cc(-c2nc(-c3ccc4c(c3)CCC(=O)N4)no2)ccc1NCCF [Compound 343, 2-[(2-fluoroethyl)amino]-5-[3-(2-oxo-1,2,3,4-tetrahydroquinolin-6-yl)-1,2,4-oxadiazol-5-yl]benzonitrile]	> 75	–	> 75	–	>6.5	>5
CCC1(CC)CC(=O)c2cc(-c3nc(-c4cccnc4)ns3)ccc2O1 [Compound 309, 2,2-diethyl-6-(3-(pyridin-3-yl)-1,2,4-thiadiazol-5-yl)chroman-4-one]	> 75	–	> 75	–	<6.5	<5
CC(C)n1ccc2cc(-c3nsc(-c4ccccc4F)n3)ccc21 [Compound 380, 5-[5-(2-fluorophenyl)-1,2,4-thiadiazol-3-yl]-1-(propan-2-yl)-1H-indole]	–	–	–	–	<6.5	<5
Cc1ccc(-c2noc(-c3ccc4c(c3)nnn4C3CCCC3)n2)cc1 [Compound 164, 1-cyclopentyl-5-[3-(4-methylphenyl)-1,2,4-oxadiazol-5-yl]-1H-1,2,3-benzotriazole]	–	–	–	–	<6.5	<5
FC(F)(F)c1cc(Br)ccc1-c1noc(-c2ccc3c(c2)nnn3C2CCCC2)n1 [Compound 114, 5-{3-[4-bromo-2-(trifluoromethyl)phenyl]-1,2,4-oxadiazol-5-yl}-1-cyclopentyl-1H-1,2,3-benzotriazole]	< 75	–	< 75	–	<6.5	<5
Cc1ccccc1Cc1noc(-c2ccc3c(c2)nnn3C(C)C)n1 [Compound 202, 5-{3-[(2-methylphenyl)methyl]-1,2,4-oxadiazol-5-yl}-1-(propan-2-yl)-1H-1,2,3-benzotriazole]	< 75	–	< 75	–	<6.5	<5
COc1cccc(-c2noc(-c3ccc4c(c3)nnn4C(C)C)n2)c1 [Compound 228, 5-(1-isopropyl-1H-benzo[d][1,2,3]triazol-5-yl)-3-(3-methoxyphenyl)-1,2,4-oxadiazole]	–	–	–	–	<6.5	<5
Cc1ccccc1C(C)c1noc(-c2ccc3c(c2)nnn3C(C)C)n1 (centres unmarked) [Compound 172, 5-{3-[1-(2-methylphenyl)ethyl]-1,2,4-oxadiazol-5-yl}-1-(propan-2-yl)-1H-1,2,3-benzotriazole]	< 75	–	< 75	–	<6.5	<5
Cc1ccccc1-c1noc(-c2ccc3c(c2)nnn3CC(F)F)n1 [Compound 182, 1-(2,2-difluoroethyl)-5-[3-(2-methylphenyl)-1,2,4-oxadiazol-5-yl]-1H-1,2,3-benzotriazole]	> 75	–	< 75	–	>6.5	>5
FC(F)(F)c1cc(-c2noc(-c3ccc4c(c3)nnn4C3CC3)n2)ccc1OCc1ccccc1 [Compound 85, 5-{3-[4-(benzyloxy)-3-(trifluoromethyl)phenyl]-1,2,4-oxadiazol-5-yl}-1-cyclopropyl-1H-1,2,3-benzotriazole]	< 75	–	< 75	–	<6.5	<5
COc1cccc(F)c1-c1noc(-c2ccc3c(c2)nnn3C(C)C)n1 [Compound 260, 3-(2-fluoro-6-methoxy-phenyl)-5-(1-isopropylbenzotriazol-5-yl)-1,2,4-oxadiazole]	> 75	–	> 75	–	<6.5	<5
CCC1(CC)CC(=O)c2cc(-c3nc(-c4ccnc(F)c4)no3)ccc2O1 [Compound 146, 2,2-diethyl-6-(3-(2-fluoropyridin-4-yl)-1,2,4-oxadiazol-5-yl)chroman-4-one]	> 75	–	< 75	–	>6.5	>5
N#Cc1cc(-c2nc(-c3ccc4c(c3)CCC(=O)N4)no2)ccc1NCC1CC1 [Compound 302, 2-((cyclopropylmethyl)amino)-5-(3-(2-oxo-1,2,3,4-tetrahydroquinolin-6-yl)-1,2,4-oxadiazol-5-yl)benzonitrile]	> 75	–	> 75	–	>6.5	>5
COc1ccccc1-c1nc(-c2ccc3c(ccn3C(C)C)c2)ns1 [Compound 375, 5-[5-(2-methoxyphenyl)-1,2,4-thiadiazol-3-yl]-1-(propan-2-yl)-1H-indole]	–	–	–	–	>6.5	>5
Cc1ccccc1-c1noc(-c2ccc3c(c2)CCC(=O)N3C)n1 [Compound 367, 1-methyl-6-[3-(2-methylphenyl)-1,2,4-oxadiazol-5-yl]-1,2,3,4-tetrahydroquinolin-2-one]	–	–	–	–	<6.5	<5

Next, values leading:

Emax [1] [%]	EC50 [1] [µM]	Emax [2] [%]	EC50 [2] [µM]	hS1P1 cAMP pEC50 [1]	hS1P1 B-arrestin2 pEC50 [2]	SMILES
–	–	–	–	<6.5	<5	Cn1ccnc1-c1noc(-c2ccc3c(c2)nnn3CC(C)(C)O)n1 [Compound 567, 2-methyl-1-{5-[3-(1-methyl-1H-imidazol-2-yl)-1,2,4-oxadiazol-5-yl]-1H-1,2,3-benzotriazol-1-yl}propan-2-ol]
< 75	–	< 75	–	>6.5	<5	CC(C)n1nnc2cc(-c3c[nH]c(-c4ccccc4)c3)ccc21 [Compound 543, 5-(5-phenyl-1H-pyrrol-3-yl)-1-(propan-2-yl)-1H-1,2,3-benzotriazole]
–	–	–	–	<6.5	>5	COCC1(COC)CC(=O)c2cc(-c3nc(-c4ccncc4)no3)ccc2O1 [Compound 494, 2,2-bis(methoxymethyl)-6-[3-(pyridin-4-yl)-1,2,4-oxadiazol-5-yl]-3,4-dihydro-2H-1-benzopyran-4-one]
–	–	–	–	<6.5	<5	COc1ccccc1-c1csc(-c2ccc3c(ccn3C(C)C)n2)n1 [Compound 411, 2-(1-isopropyl-1H-pyrrolo[3,2-b]pyridin-5-yl)-4-(2-methoxyphenyl)thiazole]
> 75	–	< 75	–	<6.5	>5	COc1ccc2nc(-c3ccc4c(c3)nnn4CC(C)C)oc2c1 [Compound 452, 2-(1-isobutyl-1H-benzo[d][1,2,3]triazol-5-yl)-6-methoxybenzo[d]oxazole]
< 75	–	< 75	–	>6.5	>5	COc1ccc2oc(-c3ccc4c(c3)nnn4CC(C)C)nc2c1 [Compound 451, 2-(1-isobutyl-1H-benzo[d][1,2,3]triazol-5-yl)-5-methoxybenzo[d]oxazole]
> 75	–	> 75	–	<6.5	<5	CC(C)n1nnc2cc(-c3nc(-c4ccccn4)co3)ccc21 [Compound 474, 1-(propan-2-yl)-5-[4-(pyridin-2-yl)-1,3-oxazol-2-yl]-1H-1,2,3-benzotriazole]
> 75	–	< 75	–	<6.5	<5	Cc1cccc2nc(-c3ccc4c(c3)nnn4C(C)C)oc12 [Compound 421, 2-(1-isopropyl-1H-benzo[d][1,2,3]triazol-5-yl)-7-methylbenzo[d]oxazole]
> 75	< 0.316	> 75	< 10	–	–	Cc1ccccc1-c1nc(-c2ccc3c(c2)nnn3CC(C)(C)O)no1 [Compound 593, 2-methyl-1-(5-(5-(o-tolyl)-1,2,4-oxadiazol-3-yl)-1H-benzo[d][1,2,3]triazol-1-yl)propan-2-ol]
